Assay results from paper PMC7613620, “Reaction hijacking of tyrosine tRNA synthetase as a whole-of-life-cycle antimalarial strategy” (Science (New York, N.Y.), 2022).
Like-named read-outs stand apart in the source and are kept apart here.

Key:
[1] = biological target: PfYRSS234C (Plasmodium falciparum, UniProt Q8IAR7, S234C); experiment: biochemical; format: binding
Experimental: (§1) 804 An intron was detected in the PftRNATyr sequence, that was not indicated in PlasmoDB. A T7 RNA
(§2) 805 polymerase promoter sequence was added to the 5’ end of the DNA sequence of P. falciparum and H.
(§3) 806 sapiens tRNATyr. This DNA template and its complementary strand were custom-synthesized by Sigma-
(§4) 807 Aldrich. Two oligonucleotides were annealed at 95°C for 5 min and the double-stranded DNA template
(§5) 808 was used for in vitro transcription. The transcription reaction was incubated at 37°C overnight. The reaction
(§6) 809 mixture consists of template DNA, T7 RNA polymerase and NTP mix as per manufacturer's instructions
(§7) 810 (HiScribe™ T7 Quick High Yield RNA Synthesis Kit, NEB). On the following day, the reaction mixture
(§8) 811 was treated with DNase I at 37°C for 15 min. tRNA was purified using RNA clean-up spin columns
(§9) 812 (Monarch® RNA Cleanup Kit, NEB) to remove contaminants from the transcription reaction.
(§10) 814 Differential scanning fluorimetry (DSF)
(§11) 815 PfYRS and HsYRS at 0.1 mg/ml were incubated with various substrates at 37°C for 1-3 h. PfYRS was
(§12) 816 assayed in 25 mM Tris, pH 8, 150 mM NaCl, 5 mM MgCl2 and 1 mM TCEP. HsYRS was assayed in 50
(§13) 817 mM Tris, pH 7.5, 150 mM NaCl, 50 mM KCl, 5 mM MgCl2 and 1 mM TCEP. SYPRO Orange (Sigma-
(§14) 818 Aldrich; 5,000X concentrate in DMSO) was added to the reaction mixture at a final concentration of 2.5X.
(§15) 819 25 µL of the sample was added into each well of a 96-well qPCR plate (Applied Biosystems). The plate
(§16) 820 was sealed and analysed using StepOnePlus Real-Time PCR system (Applied Biosystems). The samples
(§17) 821 were heated from 20°C to 90°C with a 1% continuous gradient. The thermal unfolding curve was plotted
(§18) 822 as the first derivative curve of the raw fluorescence values. The melting temperature (Tm), defined as the
(§19) 823 peak of the first derivative curve, was used to assess the thermal stability of protein-ligand complexes. KD
(§20) 824 values were calculated from DTm using the equation: ln(KD/[L]) = -131.5 x (∆Tm/Tm,apo) - 1.9, where [L]
(§21) 825 is the concentration of ligand and T is the temperature in Kelvin (40). […]

[2] = biological target: PfYRS (Plasmodium falciparum, UniProt Q8IAR7); experiment: biochemical; format: binding
Chain of PfYRS (Q8IAR7 entry or part of it): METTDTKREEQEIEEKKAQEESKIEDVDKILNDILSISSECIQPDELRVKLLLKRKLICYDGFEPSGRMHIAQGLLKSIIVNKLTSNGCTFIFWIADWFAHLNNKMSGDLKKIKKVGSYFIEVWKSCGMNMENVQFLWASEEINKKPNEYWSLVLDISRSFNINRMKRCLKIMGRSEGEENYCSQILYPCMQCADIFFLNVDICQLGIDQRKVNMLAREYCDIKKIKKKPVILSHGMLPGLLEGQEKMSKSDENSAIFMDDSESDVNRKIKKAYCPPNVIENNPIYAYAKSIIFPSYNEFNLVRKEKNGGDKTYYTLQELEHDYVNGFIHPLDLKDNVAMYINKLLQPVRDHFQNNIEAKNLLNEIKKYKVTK
Experimental: as §1, §2, §3, §4, §5, §6, §7, §8, §9, §10, §11, §12, §13, §14, §15, §16, §17, §18, §19, §20, §21

[3] = biological target: T1, HsYRS (Homo sapiens, UniProt P54577); experiment: Differential scanning fluorimetry, HsYRS; format: binding
T1 construct: made in house; host or cells: E. coli BL21(DE3), pET-11a
T1 sequence (P54577 1-364): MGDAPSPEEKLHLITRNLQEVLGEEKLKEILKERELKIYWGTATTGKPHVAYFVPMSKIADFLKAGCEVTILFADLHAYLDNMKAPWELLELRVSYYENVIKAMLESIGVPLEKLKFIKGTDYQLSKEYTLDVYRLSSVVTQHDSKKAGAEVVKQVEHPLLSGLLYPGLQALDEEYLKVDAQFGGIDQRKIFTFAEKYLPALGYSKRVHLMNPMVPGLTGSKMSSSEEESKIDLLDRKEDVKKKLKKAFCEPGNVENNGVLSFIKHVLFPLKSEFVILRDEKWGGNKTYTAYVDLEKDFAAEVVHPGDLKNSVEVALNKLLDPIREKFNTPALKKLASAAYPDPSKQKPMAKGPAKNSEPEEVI
Experimental: This DNA template and its complementary strand were custom-synthesized by Sigma-
as §7, §16
The thermal unfolding curve was plotted
The melting temperature (Tm), defined as the
Reactions were conducted in 50 mM Tris-
Reactions were conducted in 50 mM Tris-HCL, pH 7.6,

[4] = test system: P. falciparum (3D7); experiment: P. falciparum (3D7) culture growth inhibition, 72 h; format: cell-based, Plasmodium falciparum; details: Plasmodium falciparum, read-out: Pf3D7 IC50(72h); P. falciparum 3D7, 72 h
Experimental: (1 picture or pasted object on this page, not shown here)
553 Sigma-Aldrich) for 48-72 h. For drug pulse assays, tightly synchronized parasites (1-1.5% parasitemia,
554 0.2% final hematocrit) were added to the plates and incubated for 3 h. Drugs were removed and the
555 parasitemia assessed in the trophozoite stage of the next cycle.
557 Compounds were tested against a range of drug resistant field isolates and laboratory strains using a
558 modified [3H]-hypoxanthine incorporation assay, as previously reported (46). Field isolates 7G8, Cam3.1,
559 Dd2, K1, TM90C2B and NF54 were obtained from MR4 (www.beiresources.org).
561 Mammalian cell culture experiments
562 The HepG2 (Human hepatocyte carcinoma) cell line was procured from ATCC (American Type
563 Culture Collection, Manassas, USA; HB-8065) and viability assessed using Cell Titer-GLO luminescent
564 cell viability assay reagents (Promega, catalogue number: G7570) (47, 48). For the assay, 2000 cells/well
565 were plated in 384-well plates 24 h prior to the experiment and incubated at 37°C in a CO2 incubator. The
566 medium was removed and cells were treated with fresh medium containing either vehicle (0.5% DMSO)
567 or serially diluted test compounds or doxorubicin (1.3 nM to 25 µM) in a final volume of 50 µl/well and
568 further incubated for 72 h at 37°C in a CO2 incubator.
569 were treated with 5 µl of 1% Triton X-100 (final assay conc. 0.1%). Following incubation, 25 µl of medium
570 was discarded and 25 µl of Cell Titer-GLO reagent was added to each well and the plate was kept on a plate
571 shaker for 15 min at 25°C with shaking at 300 rpm. Luminescence signals were measured in a Spectramax
572 M5 reader (Molecular Devices).
574 H1650 is a human lung cancer derived ATG7-null cell line (49) that can be used to assess effects on targets
576 adenocarcinoma; bronchoalveolar carcinoma). Other cells lines used are: H460 (NCI-H460; human lung;
577 carcinoma; large cell lung cancer; ATCC: HTB-177); and HCT116 (human colon; colorectal carcinoma;
578 ATCC: CCL-247; Lot : 5056139). Each of the cell lines was received from the American Type Culture
579 Collection (ATCC) and passaged twice before freezing. Cells were cultured in the presence or absence of
580 inhibitors and cell viability was assessed by comparing the ATP content in compound-treated wells with
581 that in DMSO-treated wells as previously described (11).
583 HeLa cells (human cervical adenocarcinoma; genome sequenced (Garvin Institute, Australia) and verified

[5] = test system: PfYRS knockdown line; experiment: Growth inhibition of aptamer-regulatable PfYRS knockdown line (luciferase, 72 h); format: cell-based, Plasmodium falciparum; details: for IC50: Plasmodium falciparum, read-out: IC50 against the PfYRS knockdown line (control compounds)
Source text: 674 Generation and analysis of PfYRS knock-down transfectants
675 A conditional regulatable line for the cytosolic PfYRS (PF3D7_0807900) was generated by integrating the
676 gene regulatable system, TetR-DOZI-RNA aptamer module at the 3'-end of the target gene, in P. falciparum
677 parasites using CRISPR-Cas9 and homology-driven repair (55, 56). A line harbourbing an aptamer-
678 regulatable fluorescent protein (eYFP) integrated in the cg6 locus is used as the control (55). Transfection
679 into parasites was carried out by preloading RBCs with the donor vector as described previously (57).
680 Briefly, 50 μg of purified plasmid DNA was mixed with human RBCs and subjected to 8 square wave
681 electroporation pulses of 365 V for 1 ms each, separated by 0.1 s in a 0.2 cm cuvette. The plasmid DNA
682 preloaded cells were inoculated with NF54 expressing Cas9 and T7 RNA polymerase. […]
696 Stock solutions of ML901, DHA or borrelidin (Cayman Chemicals) were dispensed into 96-well U-bottom
697 BD Falcon™ plates and serially diluted in complete medium to yield final concentrations ranging from 20-
698 0.08 nM. Synchronous ring-stage YRScyt conditional knockdown line and the aptamer-regulatable control
699 line in varying aTc concentrations (high = 50 or 500 nM, low = 1 nM, and no aTc) were distributed into
700 the drug plate. Lowest drug treatment and a lethal dose of chloroquine (200 nM) served as reference
701 controls. Growth inhibition was analysed after 72 h using the Renilla-Glo(R) Luciferase Assay System (ref
702 no E2750 Promega) and the GloMax® Discover Multimode Microplate Reader (Promega), and IC50 values
703 were obtained from corrected dose-response curves using GraphPad Prism (version 8; GraphPad Software). […]
706 CRISPR/Cas9 was used to generate parasites encoding the S234C mutation in exon 2 of PfYRS, as shown
707 in Suppl Figure 6. Two guide RNAs (gRNA1: […] and gRNA2:
708 […]) were selected using Benchling (benchling.com), and cloned into the
709 pDC2-coCas9-gRNA plasmid essentially as described previously (58). A donor template of 645 bp,
710 encompassing the majority of the 708 bp exon 2, was synthesized (ThermoFisher) and cloned into the
711 AatII/EcoRI sites of both the pDC2-coCas9-gRNA1 and pDC2-coCas9-gRNA2 plasmids. In addition to
712 the TCC>TGC (S234C) mutation, additional silent shield mutations were introduced to prevent gRNA-
713 Cas9 complex binding, as shown in Suppl Figure 6. Ring-stage P. falciparum parasites (Dd2 strain) at 10%
714 parasitemia (150 µL of packed cells) were transfected with 50 µg of plasmid DNA using a BioRad Gene
715 Pulser II (310 V, 950 µF), and selected with 5 nM WR99210 (Jacobus Pharmaceuticals) for 8 days, after
716 which culture was continued without drug pressure until transfectants were obtained. Clones of the
717 PfYRSS234C mutant parasites were isolated by limiting dilution and verified by Sanger sequencing.
719 Protein translation assay
720 P. falciparum Cam 3.II_Rev (25) schizont- (43-48 h p.i.) infected RBCs were pre-incubated with inhibitor
Using a modification of a published procedure (14), the
722 cells were labelled with O-propargyl-puromycin (OPP; 4 µM) for 1 h, washed 3x (PBS +3% serum) and
723 then fixed for 10 minutes (4% formaldehyde/0.02% glutaraldehyde in PBS). The click reaction was
724 performed for 1 h in the presence of CuSO4 (0.1 mM), THPTA (0.5 mM) and sodium ascorbate (5 mM) to
725 bring about azide-alkyne cycloaddition to Alexa Fluor 488 azide (0.1 µM). Flow cytometry was performed
726 using the FITC and Cy™5.5 channels to detect the Alexa Fluor 488 and PI, respectively.
729 Cam 3.II_Rev (25) trophozoite-infected RBCs (25-30 h p.i.) were incubated with inhibitor for 3 h at 10%
730 hematocrit and 5% parasitemia. The RBC pellet was washed 3 x in PBS + cOmplete. Cells were centrifuged
731 at 380 x g for 5 min and the pelleted cells lysed by resuspension in PBS + 0.05% saponin for 5 min on ice.

Chain of PfYRSS234C (Q8IAR7 whole entry S234C): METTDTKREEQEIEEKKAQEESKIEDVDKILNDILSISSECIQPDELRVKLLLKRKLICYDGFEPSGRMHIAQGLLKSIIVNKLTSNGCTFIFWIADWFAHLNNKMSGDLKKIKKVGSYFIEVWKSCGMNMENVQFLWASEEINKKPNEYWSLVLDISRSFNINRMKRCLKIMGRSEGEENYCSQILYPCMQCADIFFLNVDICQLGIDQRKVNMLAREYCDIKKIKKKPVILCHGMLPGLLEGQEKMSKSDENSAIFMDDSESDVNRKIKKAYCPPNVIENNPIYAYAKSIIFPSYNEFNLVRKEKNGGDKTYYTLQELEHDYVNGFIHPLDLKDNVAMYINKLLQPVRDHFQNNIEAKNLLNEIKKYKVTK

| SMILES | Tm ([1]; PfYRSS234C 2.3 μM, after incubation at 37°C for 3 h) [oC] | DTm ([1]; PfYRSS234C, versus apo) [oC] | Kd ([1]; PfYRSS234C, estimated from DSF by empirical correlation of DTm and KD, read-out: Apparent KD*) [nM] | Tm ([2]; PfYRS 2.3 μM, after incubation at 37°C for 3 h) [oC] | DTm ([2]; PfYRS, versus apo) [oC] | Kd ([2]; PfYRS, estimated from DSF by empirical correlation of DTm and KD, read-out: Apparent KD*) [nM] | Tm ([3]; HsYRS 2.3 μM, after incubation at 37°C for 3 h) [oC] | DTm ([3]; HsYRS, versus apo) [oC] | Kd ([3]; HsYRS, estimated from DSF by empirical correlation of DTm and KD, read-out: Apparent KD*) [nM] | IC50 [4] [nM] | IC50 ([5]; high aTc (500 nM)) [nM] | IC50 ([5]; low aTc (1 nM)) [nM] | IC50 ([5]; no aTc) [nM] | Fold change in IC50 (high aTc/ no aTc), PfYRS knockdown line (control compounds) ([5]; high aTc 500 nM) |
| --- | --- | --- | --- | --- | --- | --- | --- | --- | --- | --- | --- | --- | --- | --- |
| Nc1ncnc2c1ncn2[C@@H]1O[C@H](COP(=O)(O)OC(=O)[C@@H](N)Cc2ccc(O)cc2)[C@@H](O)[C@H]1O [AMP-Tyr] | 57.1 ± 0.3 | 6.5 | 24 | 62.6 ± 0.2 | 12.4 | 2.2 | 53.3 ± 0.2 | 2.8 | 116 | – | – | – | – | – |
| C[C@H]1[C@@H](O)O[C@@H]2O[C@@]3(C)CC[C@H]4[C@H](C)CC[C@@H]1[C@@]24OO3 [DHA, Dihydroartemisinin] | – | – | – | – | – | – | – | – | – | 2.9 ± 0.2 | 1.1 ± 0.3 | 1.6 ± 0.5 | 1.2 ± 0.4 | no change |
